Reference: US5872107A, “Treatment of urogenital cancer with boron neutron capture therapy” (Emory University, priority 1997, dated 1999)

Assays:
[1] = typical nucleoside analogues; cited from earlier work
[2] = Toxicity study: weight change and survival of normal Swiss mice; type: in vivo, Swiss female mice; conditions: 30 mg/kg/day i.p.
Protocol: A toxicity study was conducted on 6-week-old Swiss female mice treated with CDU and CFAU at 30 mg/kg/day. The compounds were prepared in sterile DMSO and injected intraperitoneally (0.1 mL). DMSO and water were used as controls, with the same injection volume as that used for the CDU and CFAU solutions. The dosing schedule used was once a day for 6 days, and the mice were weighed biweekly for 28 days. Results shown in Table 3 somewhat correlate with the cytotoxicity assays in vitro.

Molecule	reabsorption by the renal tubule (in words) [1]	weight loss after 1 week (in words) ([2]; CFAU and CDU compared)	relative toxicity as monitored by survival outcome (in words) ([2]; CFAU versus CDU)	day of death of mouse ([2]; one mouse of five) [days]	weight recovery at 4 weeks (in words) ([2]; surviving animals)	% of weight gained or lost on week 1 ([2]; week 1, once a day for 6 days) [%]	% of weight gained or lost on week 2 ([2]; week 2, once a day for 6 days) [%]	% of weight gained or lost on week 3 ([2]; week 3, once a day for 6 days) [%]	% of weight gained or lost on week 4 ([2]; week 4, once a day for 6 days) [%]	survival at week 4, alive/total ([2]; week 4, once a day for 6 days)	survival at week 4 (%) ([2]; week 4, once a day for 6 days, 40320 min)
Cc1cn([C@H]2C[C@H](N=[N+]=[N-])[C@@H](CO)O2)c(=O)[nH]c1=O [AZT, 3'-azido-3'-deoxythymidine]	not reabsorbed appreciably by the renal tubule	–	–	–	–	–	–	–	–	–	–
5-o-carboranyl-1-(2-deoxy-2-fluoro-β-D-arabinofuranosyl)uracil [CFAU]	–	comparable weight loss after 1 week	more toxic than CDU	7	all the surviving animals recovered their weight loss to control untreated levels	-6.8	-0.4	5.0	9.6	4/5	80
[N-]=[N+]=N[C@H]1C[C@H](n2ccc(=O)[nH]c2=O)O[C@@H]1CO [AZddU, 3'-azido-2',3'-dideoxyuridine]	not reabsorbed appreciably by the renal tubule	–	–	–	–	–	–	–	–	–	–
